In one series the test system is platelet aggregation. The experiment in a line: platelet aggregation tests with arachidonic acid or ADP as stimulants, volunteers' platelet-rich plasma. The format is in vivo, human. As for the experimental part: (§1) One group (Arm A) received 30 days of daily doses of 50 mg of losartan potassium and 81 mg of acetylsalicylic acid. The second group (Arm B) received over the same 30 day period, daily doses of 50 mg of losartan potassium and doses of 81 mg of acetylsalicylic acid only every three days.
(§2) Control of bioavailability for acetylsalicylic acid in the analyzed individuals was performed through platelet aggregation tests, using arachidonic acid and adenosine diphosphate (ADP) as stimulants, and through the measuring of thromboxane by immunoenzymatic techniques.
(§3) The test results shown in FIGS. 1 to 6 consider four periods: D0, which is the pre-test time D15—the fifteenth day of testing, D16—the sixteenth day of testing and D17—the seventeenth day testing.

Series [1] addresses T1, platelet cyclooxygenase enzyme (Homo sapiens, UniProt P23219).
T1 construct: from tissue; host or cells: platelets of dosed healthy volunteers (ex vivo stimulation with arachidonic acid or ADP)
Briefly: measurement of thromboxane B2 (TXB2) in stimulated platelet-rich plasma by immunoenzymatic technique. Type of series: in vivo. The following applies: D15-D17. As for the experimental part: as §1, §2
Such control is based on tests to evaluate the competition between two compounds for binding to a specific antibody, namely, free thromboxane 2 (TXB 2) to be analyzed and present in the samples tested, and marked thromboxane 2 (TXB 2), attached to a molecule of acetylcholinesterase and with constant concentration (provided by the test kits).
as §3

For series [2], the system named is prostaglandin synthesis (PGE2) in gastric mucosa. The experiment in a line: prostaglandin-E2 concentration in antrum biopsies collected during endoscopy, pre- and post-treatment. Type of series: in vivo, human. The following applies: 30 days. As to the method:
as §1
To obtain this proof, endoscopic tests were performed on each volunteer, always before starting treatment and also after treatment, when biopsies were collected.
From these samples, collected from both Arm A and Arm B of the treatment, the inhibition of prostaglandin was measured.

Series [3] has the same test system. The following applies: daily use, as described in the prior art; cited from earlier work.
Setting [4] is: Arm A: 81 mg daily plus 50 mg losartan potassium daily.
The mark [5] stands for this setting: Arm B: 81 mg every three days plus 50 mg losartan potassium daily.

Results on 1 molecule are retold here after patent US20170112859A1, “METHOD OF TREATMENT USING AN ASSOCIATION OF LOSARTAN AND ACETYLSALICYLIC ACID, AND KIT” (BIOLAB SANUS FARMACEUTICA LTDA, priority 2014, published 2017).

Entries after “also recorded” stand apart in the source; their conditions may differ.

T1 sequence (P23219 24-599): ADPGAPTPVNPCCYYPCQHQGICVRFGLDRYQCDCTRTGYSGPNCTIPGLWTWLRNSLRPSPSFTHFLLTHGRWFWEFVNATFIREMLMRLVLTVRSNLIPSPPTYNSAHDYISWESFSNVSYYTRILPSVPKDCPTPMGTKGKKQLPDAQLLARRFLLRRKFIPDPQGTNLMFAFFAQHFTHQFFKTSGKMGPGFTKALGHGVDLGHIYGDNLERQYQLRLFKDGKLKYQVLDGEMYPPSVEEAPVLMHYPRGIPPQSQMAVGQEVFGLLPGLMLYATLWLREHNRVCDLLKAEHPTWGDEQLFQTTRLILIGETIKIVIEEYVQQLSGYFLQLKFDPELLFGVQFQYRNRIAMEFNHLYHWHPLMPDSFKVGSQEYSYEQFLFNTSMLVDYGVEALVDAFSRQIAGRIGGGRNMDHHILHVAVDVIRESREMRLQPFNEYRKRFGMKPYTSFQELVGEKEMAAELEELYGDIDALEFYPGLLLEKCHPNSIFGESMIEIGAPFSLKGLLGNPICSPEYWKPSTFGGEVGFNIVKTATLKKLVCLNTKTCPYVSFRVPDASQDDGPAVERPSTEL

Consider `CC(=O)Oc1ccccc1C(=O)O` [acetylsalicylic acid], for which, in the series with platelet aggregation (Arm A (81 mg daily) compared with Arm B (81 mg every three days), both with 50 mg losartan potassium daily, 30 days, healthy volunteers, stimulants arachidonic acid 300 μg/ml or ADP 20 μM), the “level of platelet inhibition” value is “almost the same level of platelet inhibition”. Further, the “inhibitory effect of the platelet aggregation” value with platelet aggregation (acetylsalicylic acid administered every three days) is listed as “sustained”. Also, the “inhibition of the platelet cyclooxygenase enzyme” value in series [1] (setting [4]) and in series [1] (setting [5]) was “satisfactory inhibition” each time. In addition, the “prostaglandin (PGE2) levels post-treatment versus pre-treatment basal” value is “significant decrease” in series [2] (setting [4]) and “did not alter the basal dose; also recorded: remained unaltered” in series [2] (setting [5]). For the same molecule, the PGE2 levels entry in series [3] was “drastically reduces”.
